EC50, IC50 and melting point data for 16 compounds are collected here from patent US20050222247A1, “Chroman derivatives” (Bayer HealthCare AG, priority 2003, published 2005).

Where a name gives a salt, the structure may show the parent alone. Where only a bound is given, the exact number is not on record here.

Data set [1] deals with T1, β3-adrenoceptor (Homo sapiens, UniProt P13945).
T1 construct: which endogenously express β1- and β3-adrenoceptors; endogenous in cells; host or cells: SK-N-MC human neuroblastoma cells
Kind of data set: Measurement of cAMP production in SK-N-MC cells (Assay 1 - Method A). It counts as cell-based. The following applies: 1 μM CGP20712A, read-out: Beta-3 EC50. The protocol:
Measurement of cAMP Production in SK-N-MC Cells (Assay 1—Method A)
Human neuroblastoma cell line, SK-N-MC, which endogenously express β1- and β3-adrenoceptors was utilized. In the presence of 1 μM of […] selective antagonist, CGP20712A, the effects of the compounds on cAMP levels were examined. SK-N-MC cells were suspended in Hank's balanced salt solution containing 20 mM Hepes, 0.1% BSA, 1 mM L-ascorbic acid sodium salt, 250 nM IBMX, and 1 μM CGP20712A (pH 7.4). After incubating at 37° C. for 30 min, the compound of the present invention was added and cells were further incubated for 30 min. Total cAMP in the well was measured by cAMP ELISA kit (Tropix, Bedford, Mass.). Effect of the compound on the cAMP level was determined at 6 different concentrations from 0.1 nM to 10 μM. The concentration to induce 50% of maximum response, 50% effective concentration (EC50), was calculated. In addition, intrinsic activity (IA) was determined as a maximum response induced by each compound, and IA was expressed as relative value compared with a response induced by 10 μM isoproterenol (i.e. cAMP level increased by 10 μM isoproterenol was taken as 100%).
In general terms: cAMP levels reflect the balance of adenylyl cyclase and phosphodiesterase activity.

Data set [2] has as its target T2, human β2-adrenoceptor (Homo sapiens, UniProt P07550).
T2 construct: expressed in transfected cells; host or cells: Chinese hamster ovary (CHO) cells (hβ2-CHO)
Briefly: Agonistic activity, cAMP levels in CHO cells (Assay 2 - Method A). The following applies: agonist, hβ2-CHO cells, read-out: Beta-2 EC50. It counts as cell-based. As to the method:
(§1) Measurement of Agonistic Activity for Human β1-Adrenoceptor Or Human β2-Adrenoceptor (Assay 2—Method A)
(§2) The agonistic activity of the compound to human […] was examined by measurement of cAMP levels in Chinese hamster ovary (CHO) cells, in which recombinant human […] was expressed (hβ2-CHO cells). The hβ2-CHO cells were suspended in Hank's balanced salt solution containing 20 mM Hepes, 0.1% BSA, 1 mM L-ascorbic acid sodium salt, and 250 nM IBMX (pH 7.4). After incubating at 37° C. for 30 min, the compound of the present invention was added and cells were further incubated for 30 min. Total cAMP in the well was measured by cAMP ELISA kit (Tropix, Bedford, Mass.). The effect of the compound on the cAMP level was determined at 6 different concentrations from 0.1 nM to 10 μM. The concentration to induce 50% of maximum response, 50% effective concentration (EC50), was calculated. In addition, intrinsic activity (IA) was determined as a maximum response induced by each compound, and IA was expressed as relative value compared with a response induced by 10 μM isoproterenol (i.e. cAMP level increased by 10 μM isoproterenol was taken as 100%). Experiments with the same methods were performed in CHO cells expressing recombinant human β1-adrenoceptor to examine the effects of the compounds on human β1-adrenoceptor.

The target of data set [3] is T3, human β1-adrenoceptor (Homo sapiens, UniProt P08588).
T3 construct: expressed in transfected cells; host or cells: Chinese hamster ovary (CHO) cells
The description is as above. It counts as cell-based. The following applies: agonist, CHO cells expressing recombinant human β1-adrenoceptor, read-out: Beta-1 EC50. The protocol: as §1, §2

Data set [4] addresses T2, human β2-adrenoceptor. Kind of data set: Antagonistic activity, isoproterenol-induced cAMP production in CHO cells (Assay 3). It counts as cell-based. The following applies: antagonist; inhibition of cAMP production induced by 100 nM isoproterenol, hβ2-CHO cells; read-out: Beta-2 IC50. As to the method: (§3) Measurement of Antagonistic Activity for Human […] (Assay 3)
(§4) The antagonistic activity of the compound to human β2-adrenoceptor was examined by measurement of cAMP levels in the hβ2-CHO cells stimulated by isoproterenol. The hβ2-CHO cells were suspended in Hank's balanced salt solution containing 20 mM Hepes, 0.1% BSA, 1 mM L-ascorbic acid sodium salt, and 250 nM IBMX (pH 7.4). The cells were stimulated by non-selective β-adrenoceptor agonist isoproterenol at 100 nM to increase cAMP levels. After incubating at 37° C. for 30 min, the compound of the present invention was added and cells were further incubated for 30 min. Total cAMP in the well was measured by cAMP ELISA kit (Tropix, Bedford, Mass.). Inhibitory effect of the compound on the isoproterenol-induced cAMP production was determined at 6 different concentrations from 0.1 nM to 10 μM. The concentration to induce 50% of inhibitory response, 50% inhibitory concentration (IC50), was calculated. Experiments with the same methods were performed in CHO cells expressing recombinant human β1-adrenoceptor to examine the effects of the compounds on human β1-adrenoceptor.

Data set [5] concerns the target T3, human β1-adrenoceptor. The description is as above. It counts as cell-based. The following applies: antagonist; inhibition of cAMP production induced by 100 nM isoproterenol, CHO cells expressing human β1-adrenoceptor; read-out: Beta-1 IC50. As to the method: as §3, §4
Data set [6] deals with T1, β3-adrenoceptor. Kind of data set: Measurement of cAMP production in SK-N-MC cells (Assay 1 - Method B). It counts as cell-based. The following applies: 1 μM Atenolol, read-out: Beta-3 EC50. The protocol: Measurement of cAMP production in SK-N-MC Cells (Assay 1—Method B)
Human neuroblastoma cell line, SK-N-MC, which endogenously express […] were utilized. In the presence or absence of 1 μM of β1-adrenoceptor selective antagonist, Atenolol, the effects of the compounds on cAMP levels were examined. SK-N-MC cells were suspended in Hank's balanced salt solution containing 20 mM Hepes, 0.1% BSA, 1 mM L-ascorbic acid sodium salt, 250 nM IBMX, and 1 μM Atenolol (pH 7.4). After incubating at 37° C. for 1 h, the compound of the present invention was added and cells were further incubated for 30 min. Total cAMP in the well was measured by cAMP ELISA kit (Tropix, Bedford, Mass.). Effect of the compound on the cAMP level was determined at 8 different concentrations from 1 pM to 10 μM. The concentration to induce 50% of maximum response, 50% effective concentration (EC50), was calculated.

Data set [7] deals with T2, human β2-adrenoceptor. Briefly: Agonistic activity, calcium influx in CHO cells (Assay 2 - Method B). The following applies: agonist, hβ2-CHO cells, read-out: Beta-2 EC50. It counts as cell-based. An excerpt: (§5) Measurement of Agonistic Activity for Human β1-Adrenoceptor or Human β2-Adrenoceptor (Assay 2—Method B)
(§6) The agonistic activity of the compound to human β2-adrenoceptor was examined by measurement of calcium influx in Chinese hamster ovary (CHO) cells, in which recombinant human β2-adrenoceptor was expressed (hβ2-CHO cells). The cells were cultivated in DMEM F12 medium. Prior to measurement, the cells were loaded with Coelenterazine (1:2000) in Ca-Tyrode. The Ca-influx was directly measured for 45 sec (Hamamatsu FluoroBox fluorescence detector). The effect of the compound on calcium influx was determined at 8 different concentrations from 1 pM to 10 μM. The concentration to induce 50% of maximum response, 50% effective concentration (EC50), was calculated. Experiments with the same methods were performed in CHO cells expressing recombinant human β1-adrenoceptor to examine the effects of the compounds on human β1-adrenoceptor.

In data set [8] the target is T3, human β1-adrenoceptor. The description is as above. It counts as cell-based. The following applies: agonist, CHO cells expressing recombinant human β1-adrenoceptor, read-out: Beta-1 EC50.
Excerpt: as §5, §6

T1 sequence (P13945 whole entry): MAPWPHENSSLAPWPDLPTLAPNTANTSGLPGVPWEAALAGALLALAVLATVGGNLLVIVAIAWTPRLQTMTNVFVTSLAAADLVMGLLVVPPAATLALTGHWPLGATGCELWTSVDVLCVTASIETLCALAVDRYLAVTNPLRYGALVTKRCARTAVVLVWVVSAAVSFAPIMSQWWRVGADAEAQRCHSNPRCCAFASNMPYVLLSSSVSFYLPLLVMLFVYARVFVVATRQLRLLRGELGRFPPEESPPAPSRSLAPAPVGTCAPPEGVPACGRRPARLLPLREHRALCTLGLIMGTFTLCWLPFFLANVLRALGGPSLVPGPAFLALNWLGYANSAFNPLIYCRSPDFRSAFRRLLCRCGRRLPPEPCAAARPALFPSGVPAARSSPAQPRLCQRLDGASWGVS
T3 sequence (P08588 whole entry): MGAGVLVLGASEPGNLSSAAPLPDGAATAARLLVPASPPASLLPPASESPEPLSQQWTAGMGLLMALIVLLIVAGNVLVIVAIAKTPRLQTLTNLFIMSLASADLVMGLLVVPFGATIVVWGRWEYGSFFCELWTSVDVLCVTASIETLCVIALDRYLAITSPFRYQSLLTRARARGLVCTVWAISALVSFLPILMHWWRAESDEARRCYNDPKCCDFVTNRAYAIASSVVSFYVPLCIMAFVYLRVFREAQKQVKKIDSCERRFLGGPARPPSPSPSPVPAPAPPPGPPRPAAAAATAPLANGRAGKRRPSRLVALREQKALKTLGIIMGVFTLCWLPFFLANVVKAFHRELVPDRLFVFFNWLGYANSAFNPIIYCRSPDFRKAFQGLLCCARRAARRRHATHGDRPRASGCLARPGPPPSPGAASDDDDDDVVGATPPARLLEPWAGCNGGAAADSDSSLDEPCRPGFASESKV
T2 sequence (P07550 whole entry): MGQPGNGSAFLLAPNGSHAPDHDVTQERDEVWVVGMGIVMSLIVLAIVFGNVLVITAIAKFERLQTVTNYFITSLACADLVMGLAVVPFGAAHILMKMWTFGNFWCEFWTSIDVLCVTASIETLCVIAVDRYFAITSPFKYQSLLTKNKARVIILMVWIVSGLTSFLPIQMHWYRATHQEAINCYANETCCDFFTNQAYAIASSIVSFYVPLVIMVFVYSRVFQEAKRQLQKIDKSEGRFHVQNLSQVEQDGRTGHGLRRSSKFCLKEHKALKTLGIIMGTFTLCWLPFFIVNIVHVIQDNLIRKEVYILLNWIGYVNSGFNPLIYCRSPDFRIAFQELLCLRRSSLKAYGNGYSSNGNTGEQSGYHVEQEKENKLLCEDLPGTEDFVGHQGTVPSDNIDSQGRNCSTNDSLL

What is called EC50 is the concentration at which the effect is half-maximal. Usually IC50 stands for the concentration that gives 50% inhibition. With `O=C(O)c1ccccc1Oc1ccc2c(c1)CC[C@H](CNC[C@H](O)COc1ccccc1)O2` [Example 1, 2-{[(2R)-2-({[(2S)-2-hydroxy-3-phenoxypropyl]amino}methyl)-3,4-dihydro-2H-chromen-6-yl]oxy}benzoic Acid], the EC50 was 0.026 µM in data set [1], > 10 µM in data set [2] and > 10 µM in data set [3]. For the same compound, the IC50 in [4] is 0.93 µM; in [5], > 10 µM. The melting point is the temperature, or range, at which the solid turns liquid. Compound `O=C(O)c1ccccc1Oc1ccc2c(c1)CC[C@H](CNC[C@H](O)COc1ccc(F)cc1F)O2` [Example 40] displayed a melting point of 138 to 142 °C. Turning to `O=C(O)c1ccccc1Oc1ccc2c(c1)CC[C@H](CNC[C@H](O)COc1ccccc1N1CCOCC1)O2` [Example 42], the melting point was in the range of 173 to 176 °C.

`O=C(O)c1cc(F)ccc1Oc1ccc2c(c1)CC[C@H](CNC[C@H](O)COc1ccccc1)O2` [Example 44, 5-fluoro-2-{[(2R)-2-({[(2S)-2-hydroxy-3-phenoxypropyl]amino}methyl)-3,4-dihydro-2H-chromen-6-yl]oxy}benzoic Acid Hydrochloride]: the concentration for a half-maximal effect (EC50) is 0.023 µM in data set [6], > 10 µM in data set [7] and > 10 µM in data set [8].

Regarding `CC(C)(C)c1cc(C(=O)O)ccc1Oc1ccc2c(c1)CC[C@H](CNC[C@H](O)COc1ccccc1)O2` [Example 23], the concentration for a half-maximal effect (EC50) in data set [2] was > 10 µM. `O=C(O)c1ccccc1Oc1ccc2c(c1)CC[C@H](CNC[C@H](O)COc1ccccc1F)O2` [Example 36] showed a melting point of 209 °C. For the compound `O=C(O)c1ccccc1Oc1ccc2c(c1)CC[C@H](CNC[C@H](O)COc1ccc(F)c(Cl)c1)O2` [Example 43], the melting point lay within 196 to 199 °C. On the same count and under the same terms, under `O=C(O)c1ccccc1Oc1ccc2c(c1)CC[C@H](CNC[C@H](O)COc1c(F)cccc1F)O2` [Example 41] stands 196 to 198 °C. In turn, `O=C(O)c1ccccc1Oc1ccc2c(c1)CC[C@H](CNC[C@H](O)COc1ccccc1-c1ccccc1)O2` [Example 37] gave a melting point of 175 °C. For the same compound, the EC50 in data set [1] came out at 0.23 µM. In turn, `O=C(O)c1ccccc1Oc1ccc2c(c1)CC[C@H](CNC[C@H](O)COc1ccccc1C(F)(F)F)O2` [Example 38] returned a melting point of 162 °C. For `N#Cc1ccc(Nc2ccc3c(c2)CC[C@H](CNC[C@H](O)COc2ccccc2)O3)cc1` [Example 29], in data set [1], the EC50 amounted to 0.16 µM.

As for `O=C(O)c1ccccc1Oc1ccc2c(c1)CC[C@H](CNC[C@H](O)COc1ccccc1Cl)O2` [Example 39], the melting point was 230 °C. `CN(c1ccc(C(=O)O)cc1)c1ccc2c(c1)CC[C@H](CNC[C@H](O)COc1ccccc1)O2` [Example 2, 4-[[(2R)-2-({[(2S)-2-hydroxy-3-phenoxypropyl]amino}methyl)-3,4-dihydro-2H-chromen-6-yl](methyl)amino]benzoic acid hydrochloride]: the EC50 in [1] amounted to 0.014 µM.

With `O=C(O)c1cccc(Nc2ccc3c(c2)CC[C@H](CNC[C@H](O)COc2ccccc2)O3)c1` [Example 11], the EC50 in data set [6] stood at 0.186 µM. Turning to `COc1cc(Oc2ccc3c(c2)CC[C@H](CNC[C@H](O)COc2ccccc2)O3)c(C(=O)O)cc1OC` [Example 54], the EC50 in [7] is > 10 µM; in [8], 8 µM.

In the case of `COc1cc(C(=O)O)ccc1Oc1ccc2c(c1)CC[C@H](CNC[C@H](O)COc1ccccc1)O2` [Example 12], the EC50 in data set [1] was 0.27 µM.
